According to US4767778A (Institut National de la Sante et de la Recherche Medicale …, priority 1985, dated 1988):
Read-outs that look alike come from different tables or passages of the source.

Columns and labels:
[1] = tested on: H1 /H2 receptors; conditions: histamine = 100%; cited from earlier work
[2] = target: T1, H3 autoreceptors (Rattus norvegicus, UniProt Q9QYN8)
[3] = tested on: H3 receptors; test: Inhibition of synthesis of histamine in slices of human cerebral cortex and posterior hypothalamus; type: cell-based; conditions: slices of human cerebral cortex and posterior hypothalamus (mamillary)
[4] = tested on: H3 receptors; test: Inhibition of the synthesis of (3H) histamine in rats in vivo; design: species or system rat; conditions: for (3) histamine (% of the total radioactivity × 10^-3), Treated: 10 minutes
[5] = target: T1, H3 autoreceptors; conditions: slices of rat brain

T1 sequence (Q9QYN8 whole entry): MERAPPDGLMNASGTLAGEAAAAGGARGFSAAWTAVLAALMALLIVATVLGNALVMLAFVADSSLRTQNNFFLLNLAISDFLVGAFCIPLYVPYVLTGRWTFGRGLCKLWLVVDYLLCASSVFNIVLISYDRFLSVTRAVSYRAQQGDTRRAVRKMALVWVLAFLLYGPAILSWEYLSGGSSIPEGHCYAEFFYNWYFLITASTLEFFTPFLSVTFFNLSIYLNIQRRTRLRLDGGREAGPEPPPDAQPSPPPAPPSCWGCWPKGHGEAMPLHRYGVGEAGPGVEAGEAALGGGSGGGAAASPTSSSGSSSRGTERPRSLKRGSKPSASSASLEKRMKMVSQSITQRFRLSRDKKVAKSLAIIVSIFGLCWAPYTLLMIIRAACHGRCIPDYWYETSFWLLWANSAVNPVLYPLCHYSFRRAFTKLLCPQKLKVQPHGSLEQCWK

| EC50 [2] [µM] | Activity relative to histamine (%) H3 receptors ([2]; histamine = 100% (EC50 […] nM)) [%] | Structure (SMILES) | Activity relative to histamine (%) H1 /H2 receptors [1] | also measured |
| --- | --- | --- | --- | --- |
| 0.02 ± 0.005 | 120 | CC(CN)c1c[nH]cn1 (racemic) [3 (R, S), 4-(1-methyl 2-aminoethyl)-imidazole] | 2-2% |  |
| 1 ± 0.5 | 6 | C[C@](N)(Cc1c[nH]cn1)C(=O)O (racemic) [6 (R, S), α-methylhistidine] | inactive |  |
|  |  | CC(N)Cc1c[nH]cn1 (racemic) [compound 1, 4-(2-aminopropyl)-imidazole] |  | effect on synthesis of histamine [3]: inhibits |
|  |  | C[C@@H](N)Cc1c[nH]cn1 [1 (R), 4-(2-aminopropyl)-imidazole] |  | effect on the synthesis of (3H) histamine in the brain and peripheral tissues ([4]; 10 mg/kg, simultaneous with (3H)-L-histidine, completely reversed by an H3 antagonist): significantly reduces; (3) histamine (% of the total radioactivity × 10^-3), Treated ([4]; Cerebral cortex, 10 mg/kg i.v. with (3H)-L-histidine, controls 95 ± 6): 53 ± 6 % of the total radioactivity ×; Variation (%) ([4]; Cerebral cortex, 10 mg/kg i.v., p < 0.01): -45%; (3) histamine (% of the total radioactivity × 10^-3), Treated ([4]; Hypothalmus, 10 mg/kg i.v., controls 272 ± 11): 185 ± 32 % of the total radioactivity ×; Variation (%) ([4]; Hypothalmus, 10 mg/kg i.v., p < 0.01): -32%; Variation (%) ([4]; Kidneys, 10 mg/kg i.v., p < 0.05): -30%; (3) histamine (% of the total radioactivity × 10^-3), Treated ([4]; Lungs, 10 mg/kg i.v., controls 138 ± 10): 94 ± 10 % of the total radioactivity ×; Variation (%) ([4]; Lungs, 10 mg/kg i.v., p < 0.05): -32%; (3) histamine (% of the total radioactivity × 10^-3), Treated ([4]; Spleen, 10 mg/kg i.v., controls 60 ± 8): 42 ± 5 % of the total radioactivity ×; Variation (%) ([4]; Spleen, 10 mg/kg i.v., p < 0.05): -30% |
| 0.05 ± 0.02 | 120 | CC(C)(CN)c1c[nH]cn1 [compound 4, 4-(1,1-dimethyl 2-aminoethyl)-imidazole] | < 0.1% |  |
|  |  | NCCc1c[nH]cn1 [histamine, reference compound] |  | maximal inhibition of the stimulation by potassium of the synthesis of (3H) histamine [5]: approximately 70%; maximal inhibition of release of (3H) histamine ([2]; slices of rat brain): approximately 60% |

| Structure (SMILES) | EC50 [2] [µM] | Activity relative to histamine (%) H3 receptors ([2]; histamine = 100% (EC50 […] nM)) [%] | Activity relative to histamine (%) H1 /H2 receptors [1] | also measured |
| --- | --- | --- | --- | --- |
| CC(C)(N)Cc1c[nH]cn1 [compound 2, 4-(2-methyl 2-aninopropyl)-imidazole] | 0.02 ± 0.01 |  | < 1% | Activity relative to histamine (%) H3 receptors [2]: 300% |
| NC1CC1c1c[nH]cn1 (stereo not shown) [compound 5, 2-(4-imidazolyl)-cyclopropylamine] | < 0.1 | > 60 | < 1% |  |
